Measurements from patent US20050148514A1, “Method and composition for treatment of angiogenesis” (priority 2003, published 2005).
Entries after “also recorded” stand apart in the source; their conditions may differ. Where no end group is shown, it is not given here.

What was measured:
MAPK/JNK pathway (SRE) = assay: SEAP gene-reporter assay in U-87 glioma cells, SRE element; assay type: cell-based; conditions: alkaline phosphatase activity in extracellular media
Description: (§1) In order to investigate the potential intracellular pathways triggered by the PCK3145 derivative, a gene-reporter assay using the SEAP (Secreted Alkaline Phosphatase) Mercury Profiling Kit (CLONTECH) was performed in glioma cells (U-87). This assay enables the monitoring of transcription factors that are triggered by a particular experimental condition by assaying the alkaline phosphatase activity in the extracellular media. […] The induction of the MAPK pathway by the PCK3145 derivative is further confirmed by the rapid and transient induction of ERK phosphorylation between 5-10 minutes (FIG. 8B) and is shown to be dose-dependent (FIG. 8C). Finally, the effects of the PCK3145 derivative were also compared to those of a scrambled peptide.

proMMP-2 = assay: Gelatin zymography of conditioned media of serum-starved HUVEC; assay type: cell-based, Human; conditions: 300 μg/ml, 24 hours
Description: Zymography. Zymography is a technique generally used to analyze the activity of matrix metalloproteinases (MMPs) in biological samples. It involves the electrophoretic separation of proteins under denaturing (Sodium Dodecyl Sulfate (SDS)) but non-reducing conditions through a polyacrylamide gel containing gelatin (for example, 10% gel containing 1 mg/ml gelatin for MMP-9 and MMP-2 assays). The resolved proteins are re-natured by exchanging SDS with a non-ionic detergent such as Triton X-100 and the gel is incubated in an incubation buffer for activation of MMP-2 and MMP-9 (for example at 37° C. for 18 hrs). The gel is stained with Coomassie blue and the MMP-2 and MMP-9 bands may be visualized as clear bands against a blue background (i.e., the MMPs degrade the gelatin and are visualized as clear bands; pro MMP-2 is 68 kDa and pro-MMP-9 is 92 kDa). These bands can be quantified using densitometry.
Cell culture. Human umbilical vein endothelial cells (HUVEC) and pulmonary aortic smooth muscle cells (PASMC) were obtained from Clonetics and maintained in endothelial cell basal medium-2, (EBM-2; Clonetics) and smooth muscle medium-2 (SmGM-2; Clonetics), respectively. […]
The effect of the PCK3145 derivative (SEQ ID NO.:7) on MMP extracellular levels was assessed by gelatin-zymography in the conditioned media of serum-starved HUVEC. […]

ERK = assay: PDGF-induced ERK phosphorylation in PASMC; assay type: cell-based; conditions: treatment as for HUVEC
Description: Cell culture. Human umbilical vein endothelial cells (HUVEC) and pulmonary aortic smooth muscle cells (PASMC) were obtained from Clonetics and maintained in endothelial cell basal medium-2, (EBM-2; Clonetics) and smooth muscle medium-2 (SmGM-2; Clonetics), respectively. Cells were cultured at 37° C. under a humidified atmosphere containing 5% CO2. For experimental purposes, cells were plated in 8 100-mm plastic dishes at 5,000 cells/cm^2 and were grown to confluence before overnight serum starvation. Cells were treated with vehicle or with a PCK3145 derivative diluted in 0.1 N NaOH, and stimulated with 50 ng/ml VEGF, PDGF or with 1 μM S1P.
Immunoprecipitation and immunoblotting procedures. After treatment, cells were washed once with phosphate-buffered saline (PBS) containing 1 mM sodium orthovanadate and were incubated in the same medium for 1 h at 4° C. The cells were solubilized on ice in lysis buffer (150 mM NaCl, 10 mM Tris-HCl, pH 7.4, 1 mM EDTA, 1 mM EGTA, 0.5% Nonidet P-40, 1% Triton X-100) containing 1 mM sodium orthovanadate. The cells were then scraped from the culture dishes and the resulting lysates were clarified by centrifugation at 10,000 g for 10 min. Protein concentrations were determined using the micro bicinchoninic acid method. For immunoprecipitation studies, lysates were clarified by a 1 h incubation at 4° C. with a mixture of Protein A/Protein G Sepharose beads. […]

NFkB pathway = assay: SEAP gene-reporter assay in U-87 glioma cells, NFkB element; assay type: cell-based; conditions: alkaline phosphatase activity in extracellular media
Description: as §1

Sequence: EWQTDNCETCTCYET (cysteine pairing not given here)
- SEAP reporter, MAPK/JNK pathway (SRE) (MAPK/JNK pathway (SRE)): triggers significantly; also recorded: extremely strong
- inhibition of VEGF-induced proMMP-2 secretion (proMMP-2): approximately 50%
- PDGF-induced ERK phosphorylation (ERK): inhibition
- SEAP reporter, NFkB pathway (NFkB pathway): triggers significantly
